# Literature values as cited in patent publication US20100081862A1, “Composition and method to modify sperm function and increase male gender ratio in mammals” (priority 2008, published 2010).
# Assays:
# [1] = system: early-staged mouse embryos; conditions: living early-staged mouse embryos, transplanted to produce normal living offspring
# [2] = system: Hexose Monophosphate Shunt (HMS); conditions: bovine oocytes
smiles,measurement,setting,value
"CCN(CC)c1cc2c(cc1C)Nc1ccc(N)cc1O2 [BCB, 2-methyl-3-diethylamino-7-amino phenoxazine]",toxicity of BCB and its metabolites,[1],relatively non-toxic
same,increase in oxidation of glucose through the HMS,[2],15 fold
same,increase in glucose metabolism through glycolysis,[2]; compared with the increase through the HMS,somewhat less increase
